Assay results from patent US8993483B2, “Combination of active substances with insecticidal properties” (Bayer Intellectual Property GmbH, priority 2003, dated 2015).

Experiments:
Type in all cases: in vivo
[1] = tested on: caterpillars of the armyworm (Spodoptera frugiperda); assay: Spodoptera frugiperda test (cabbage leaf dip, kill rate); settings: single active compound
Excerpt: (§1) The expected action for a given combination of two active compounds can be calculated as follows, according to S. R. Colby, Weeds 15 (1967), 20-22:
(§2) • X is the kill rate, expressed as a percentage of the untreated control, when employing active compound A at an application rate of m g/ha or in a concentration of m ppm, • Y is the kill rate, expressed as a percentage of the untreated control, when employing active compound B at an application rate of n g/ha or in a concentration of n ppm and • E is the kill rate, expressed as a percentage of the untreated control, when employing active compounds A and B at application rates of m and n g/ha or in a concentration of m and n ppm, then
(§3) If the actual insecticidal kill rate exceeds the calculated value, the action of the combination is superadditive, i.e. a synergistic effect is present. In this case, the actually observed kill rate must exceed the value calculated using the above formula for the expected kill rate (E).
Spodoptera frugiperda Test
(§4) To produce a suitable preparation of active compound, 1 part by weight of active compound is mixed with the stated amounts of solvent and emulsifier, and the concentrate is diluted with emulsifier-containing water to the desired concentration.
Cabbage leaves (Brassica oleracea) are treated by being dipped into the preparation of active compound of the desired concentration and are populated with caterpillars of the armyworm (Spodoptera frugiperda) while the leaves are still moist.
(§5) After the desired period of time, the kill in % is determined. 100% means that all caterpillars have been killed; 0% means that none of the caterpillars have been killed. The kill rates determined are calculated using Colby's formula (see page 43).

[2] = tested on: larvae of the mustard beetle (Phaedon cochleariae); assay: Phaedon cochleariae larvae test (cabbage leaf dip, kill rate); settings: single active compound
Excerpt: as §1, §2, §3
Phaedon cochleariae Larvae Test
(§6) To produce a suitable preparation of active compound, 1 part by weight of active compound is mixed with the stated amounts of solvent and emulsifier, and the concentrate is diluted with emulsifier-containing water to the desired concentration. […]
(§7) After the desired period of time, the kill in % is determined. […] The kill rates determined are calculated using Colby's formula (see page 43).

[3] = tested on: green peach aphid (Myzus persicae); assay: Myzus persicae test (infested cabbage leaf dip, kill rate); settings: single active compound, 0.8 ppm
Excerpt: as §1, §2, §3, §6, §7

[4] = tested on: caterpillars of the diamond back moth (Plutella xylostella, normally sensitive strain); assay: Plutella xylostella test (normally sensitive strain; cabbage leaf dip, kill rate); settings: single active compound
Excerpt: as §1, §2, §3
Plutella xylostella Test (Normally Sensitive Strain)
as §4
Cabbage leaves (Brassica oleracea) are treated by being dipped into the preparation of active compound of the desired concentration and are populated with larvae of caterpillars of the diamond back moth (Plutella xylostella, normally sensitive strain) while the leaves are still moist.
After the desired period of time, the kill in % is determined. 100% means that all caterpillars have been killed; 0% means that none of the caterpillars have been killed. The kill rates determined are calculated using Colby's formula (see sheet 1).

[5] = tested on: caterpillars of the cotton boll worm (Heliothis armigera); assay: Heliothis armigera test (cabbage leaf dip, kill rate); settings: single active compound
Excerpt: as §1, §2, §3, §4
Cabbage leaves (Brassica oleracea) are treated by being dipped into the preparation of active compound of the desired concentration and are populated with caterpillars of the cotton boll worm (Heliothis armigera) while the leaves are still moist.
as §5

SMILES	Kill rate in % after 6 d, found ([1]; 0.0064 ppm)	Kill rate in % after 6 d, found ([2]; 0.0064 ppm)	Kill rate in % after 6 d, found [3]	Kill rate in % after 6 d, found ([4]; 0.0064 ppm)	Kill rate in % after 6 d, found ([5]; 0.0064 ppm)	Kill rate in % after 6 d, found ([4]; 4 ppm)	Kill rate in % after 6 d, found ([5]; 4 ppm)	Kill rate in % after 6 d, found ([1]; 4 ppm)	Kill rate in % after 6 d, found ([2]; 4 ppm)
Cc1cc(Cl)cc(C(=O)NC(C)C)c1NC(=O)c1cc(C(F)(F)F)nn1-c1ncccc1Cl [II-1-9]	0%	0%	0%	20%	0%				
CN/C(=N\[N+](=O)[O-])NCc1cnc(Cl)s1 [Im, clothianidin]			30%			0%	40%		
O=[N+]([O-])/N=C1\NCCN1Cc1ccc(Cl)nc1 [Ia, imidacloprid]						0%	0%	0%	20%
